Results taken from PubChem BioAssay (NCI).
Several values for one entry are separate records, joined by “and”; a condition that tells them apart may be missing. Equal entries are not always repeated.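 Method: 48-hour compound exposure of cells in 96-well plates, five concentrations, linear interpolation of endpoints. The concentration for 50% growth inhibition is given as GI50. TGI: total growth inhibition.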

How the values were obtained:
Experiment in all cases: NCI tumour cell line growth inhibition, 48 h
SR leukemia = test system: SR leukemia
NCI-H226 lung = test system: NCI-H226 lung
EKVX NSCLC = test system: EKVX NSCLC
SN12C renal = test system: SN12C renal
MALME-3M melanoma = test system: MALME-3M melanoma
SK-OV-3 ovarian = test system: SK-OV-3 ovarian
SK-MEL-28 melanoma = test system: SK-MEL-28 melanoma
HOP-62 NSCLC = test system: HOP-62 NSCLC
DMS 273 small cell lung = test system: DMS 273 small cell lung
KM20L2 colon = test system: KM20L2 colon

Compound | GI50 (SR leukemia) | TGI (SR leukemia) | GI50 (NCI-H226 lung) | TGI (NCI-H226 lung) | GI50 (EKVX NSCLC) | TGI (EKVX NSCLC) | GI50 (SN12C renal) | TGI (SN12C renal) | GI50 (MALME-3M melanoma) | TGI (MALME-3M melanoma) | GI50 (SK-OV-3 ovarian) | TGI (SK-OV-3 ovarian) | GI50 (SK-MEL-28 melanoma) | TGI (SK-MEL-28 melanoma) | GI50 (HOP-62 NSCLC) | TGI (HOP-62 NSCLC) | TGI (DMS 273 small cell lung) | TGI (KM20L2 colon)
C=CCSSc1ncnc2c1ncn2C1OC(CO)C(O)C1O (stereo unspecified) | 0.205 µM | 3.73 µM | 4.14 µM | > 100 µM | 69.3 µM | > 100 µM | 11.3 µM | > 100 µM | 2.48 µM | > 47.4 µM | 0.501 µM | > 87.2 µM | 36.5 µM | > 100 µM | 1.78 µM | > 100 µM | – | –
O=[N+]([O-])c1cc2c(c([N+](=O)[O-])c1)Nc1ccccc1O2 | 5.46 µM | > 100 µM | 5.97 µM | > 100 µM | 4.4 µM | 51.7 µM | 6 µM | > 100 µM | 4.08 µM | > 100 µM | 15.2 µM | 58.6 µM | 19.5 µM | > 100 µM | 16.3 µM | 44.4 µM | – | –
N#Cc1nn(-c2cc(=O)[nH]c3ccc(Br)cc23)c(N)c1C#N | 74.2 µM | > 100 µM | > 100 µM | > 100 µM | 4.6 µM | > 100 µM | > 100 µM | > 100 µM | > 100 µM | > 100 µM | > 100 µM | > 100 µM | > 100 µM | > 100 µM | > 100 µM | > 100 µM | – | –
O=C(NCCCCCCNC(=O)OCc1ccc2c(Cl)cc(Cl)c(O)c2n1)OCc1ccc2c(Cl)cc(Cl)c(O)c2n1 | 0.357 µM | – | 1.07 µM | 2.54 µM | 1.51 µM | 3.08 µM | 0.957 µM | 2.25 µM | 1.42 µM | 2.77 µM | 5.5 µM | 17.9 µM | 1.19 µM | 2.42 µM | 1.7 µM | 4.22 µM | – | –
COC1=C(OC)[C@]2(OC)c3c(O)c(OC)c4c(c3O[C@@]23O[C@@H](c2ccccc2)CC=C3C1=O)[C@@H](O)C[C@H](c1ccccc1)O4 | 0.229 µM | 0.612 µM | 0.286 µM | 1.46 µM | 1.69 µM | 3.08 µM | 0.27 µM | 0.893 µM | 0.377 µM | 1.33 µM | 1.76 µM | 3.45 µM | 0.318 µM | 1 µM | 1.54 µM | 3.2 µM | – | –
COc1cc(Nc2nc3cc(C(F)(F)F)ccc3nc2C)cc(OC)c1OC | – | 30.3 µM | – | 22.8 µM | – | 30.6 µM | – | 23 µM | – | 26.6 µM | – | 30.5 µM | – | 25.3 µM | – | 30.6 µM | 30 µM | –
O=C(O)[C@@H](NS(=O)(=O)c1ccc([N+](=O)[O-])cc1)c1ccccc1 | – | – | – | > 100 µM | – | > 100 µM | – | > 100 µM | – | > 100 µM | – | > 100 µM | – | > 100 µM | – | – | > 100 µM | > 100 µM
c1ccc2c(c1)[nH]c1c2ncc2[nH]c3ccccc3c21 | – | – | – | 49.1 µM | – | 33.1 µM | – | 13.6 µM | – | 47.1 µM | – | 28.7 µM | – | 27.7 µM | – | 19.4 µM | 9.39 µM | 12.5 µM
CNC(=O)CN1CCC(Oc2cc3c(Nc4cccc(Cl)c4F)ncnc3cc2OC)CC1 | 21.1 µM and 2.19 µM | > 70.1 µM and 8.97 µM | 13.9 µM and > 6.23 µM | 42.1 µM and > 10 µM | < 0.0147 µM and 0.0154 µM | – | 2.96 µM and 3.42 µM | > 100 µM | 16.1 µM and > 10 µM | > 58 µM | 0.167 µM and 0.153 µM | 5.73 µM and 1.82 µM | 19.2 µM and > 7.55 µM | 47.3 µM and > 10 µM | 7.91 µM and 3.95 µM | 70.4 µM and > 10 µM | – | –
Clc1ccc2c(NCCNc3nc(N4CCCC4)nc4ccccc34)ccnc2c1 | 0.365 µM | 2.36 µM | 1.95 µM | 4.06 µM | 2.08 µM | 7.65 µM | 1.16 µM | 3.3 µM | 1.91 µM | 3.6 µM | 1.71 µM | 3.16 µM | 1.84 µM | 3.55 µM | 1.49 µM | 3.49 µM | – | –
CC(C)c1cccc(C(C)C)c1NC(=O)CCC(=O)NN | – | – | – | > 100 µM | – | > 100 µM | – | > 100 µM | – | > 100 µM | – | > 100 µM | – | > 100 µM | – | > 100 µM | > 100 µM | > 100 µM
CCOC(=O)N1C=CC(=C2C(=C3C=CN(C(=O)OCC)C=C3)C(=C3C=CN(C(=O)OCC)C=C3)C2=C2C=CN(C(=O)OCC)C=C2)C=C1 | – | 26.3 µM | – | 71 µM | – | > 100 µM | – | 92.4 µM | – | 64 µM | – | > 100 µM | – | > 100 µM | – | > 100 µM | – | –
CCCN1C(=O)CNC(=O)c2[nH]cnc21 | – | > 100 µM | – | > 100 µM | – | > 100 µM | – | > 100 µM | – | > 100 µM | – | > 100 µM | – | > 100 µM | – | > 100 µM | – | > 100 µM
O=S(=O)(CCCCl)SCCCCl | – | 60.1 µM | – | > 100 µM | – | > 100 µM | – | 64.1 µM | – | > 83.8 µM | – | > 100 µM | – | > 100 µM | – | > 100 µM | – | –
Cc1cc2nc(C(Cl)Cl)nc(-c3ccccc3)n2n1 | 2.3 µM | > 100 µM | > 100 µM | > 100 µM | 3.72 µM | 20.3 µM | 24.7 µM | > 100 µM | 9.11 µM | 28.1 µM | 3.34 µM | 21.5 µM | 3.54 µM | 13.1 µM | 2.48 µM | 8.64 µM | – | –
COc1ccc(C2C3=C(COC3=O)Oc3cc4c(cc32)OCO4)cc1 (stereo unspecified) | – | – | – | – | – | > 100 µM | – | > 100 µM | – | > 100 µM | – | > 100 µM | – | > 100 µM | – | 51.7 µM | > 100 µM | 38.9 µM
CCOC(=O)c1cc(OC(=O)CC)c2c(OC)ccc(OC)c2c1 | – | > 100 µM | – | – | – | > 100 µM | – | > 100 µM | – | > 100 µM | – | 91.6 µM | – | > 100 µM | – | – | > 100 µM | –
Cn1c(=N)n[n+]([O-])c2ccccc21 | 3.87 µM | 14.7 µM and 9.32 µM | – | 24.8 µM and 32.4 µM | – | 18.3 µM | – | 3.29 µM and 4.19 µM | – | 6.15 µM | – | 46.9 µM and 52.5 µM | 2.42 µM and 7.01 µM | 5.88 µM and 15.6 µM | – | 4.29 µM and 4.98 µM | – | –
